In series [1] the test system is normal rCMECs. Briefly: Cell viability by MTT, normal rCMECs. The settings on record: 24 h; FLZ 1 to 50 µM, zosuquidar 5 µM, FTC 10 µM. It counts as cell-based, rat. The procedure: (§1) To investigate the effects of FLZ on the growth of normal and PD rCMECs monolayers, a cell proliferation assay was performed. […] Therefore, in all following experiments, we used FLZ (1, 5 and 10 µM), zosuquidar (5 µM) and FTC (10 µM) as standard treatment.
(§2) Supplementary file pone.0102442.s001.tif: Figure S1 The cytotoxicity of FLZ (A) and inhibitors (B) in rat cerebral microvessel endothelial cells. rCMECs were exposed to the indicated concentration of FLZ (A) and transport inhibitors zosuquidar and FTC for 24 h. Each point represents the mean ± SD of three determinations. Each experiment was performed in three times. (TIF) Click here for additional data file.

The test system of series [2] is PD rCMECs. As to the kind of experiment: Cell viability by MTT, PD rCMECs. It counts as cell-based, rat. The following applies: 24 h; FLZ 1 to 50 µM, zosuquidar 5 µM, FTC 10 µM. The procedure: as §1, §2
In series [3] the test system is PD pathological in vitro BBB model. Briefly: Sodium fluorescein permeability, PD pathological co-culture BBB model. The format is in vitro ADME, rat. The following applies: co-culture model under Parkinson's conditions. The procedure: (§3) The flux of sodium fluorescein (NaF) across the BBB models was determined as previously described. Prior to transport studies, culture media from the top and bottom compartments were replaced with HBSS. 100 µg/ml Na-F (MW: 376 Da) was added to the upper inserts of the Transwell system. At 30, 60, 90 and 120 min, 50 µl samples were taken from the acceptor compartment and immediately replaced with fresh buffer. The concentrations of the fluorescein in samples from the upper to lower compartments were determined by fluorescence multiwell plate reader (excitation wavelength: 485 nm; emission wavelength: 535 nm). Based on the rate of influx of sodium fluorescein into the bottom compartment, permeability coefficients were calculated.

Series [4] deals with physiological in vitro BBB model. Briefly: Sodium fluorescein permeability, physiological co-culture BBB model. The format is in vitro ADME, rat. The settings on record: co-culture model under normal conditions. The procedure: as §3

`COc1ccc2c3c([nH]c2c1)[C@H](C=C(C)C)N1C(=O)[C@@H]2CCCN2C(=O)[C@@H]1C3` [FTC, Fumitremorgin C]: the “viability of normal rCMECs (MTT)” value in series [1] was “did not effect”. Moreover, the “viability of PD rCMECs (MTT)” value in series [2] is recorded as “did not effect”.
As for `O[C@@H](COc1cccc2ncccc12)CN1CCN([C@@H]2c3ccccc3[C@@H]3[C@H](c4ccccc42)C3(F)F)CC1` [zosuquidar], the “viability of normal rCMECs (MTT)” value in series [1] was “did not effect”. Also, the “viability of PD rCMECs (MTT)” value in series [2] is “did not effect”.
In the case of `O=C([O-])c1ccccc1-c1c2ccc(=O)cc-2oc2cc([O-])ccc12.[Na+].[Na+]` [NaF, sodium fluorescein], the “paracellular Papp of NaF” value in series [3] is 2.18±0.26 10^−6 cm/s; in series [4] it was 1.92±0.19 10^−6 cm/s.

These data come from publication PMC4103815, “P-Glycoprotein Mediated Efflux Limits the Transport of the Novel Anti-Parkinson's Disease Candidate Drug FLZ across the Physiological and PD Pathological In Vitro BBB Models” (PLoS ONE, 2014).
